Experimental data reported in patent US9371336B2, “Compounds for treating spinal muscular atrophy” (PTC Therapeutics Inc., priority 2012, dated 2016).

Experiments:
[1] = system: SMN2 full length and Δ7 mRNA; experiment: Endogenous SMN2 mRNA RT-qPCR splicing assay in cultured cells (GM03813 SMA patient cells); assay type: cell-based, human; settings: Type 1 SMA patient fibroblasts GM03813, increasing concentrations, 24 hr, RT-qPCR (FIG. 4)
Experimental: The reverse transcription-quantitative PCR-based (RT-qPCR) assay is used to quantify the levels of the SMN2 full length and Δ7 mRNA in primary cells and cell lines containing the SMN2 gene treated with a test compound.
GM03813 SMA patient cells (5,000 cells/well) are seeded in 200 μL, of cell culture medium (DMEM plus 10% FBS) in 96-well flat-bottom plates and the plate is immediately swirled to ensure proper dispersal of cells, forming an even monolayer of cells. Cells are allowed to attach for at least 4-6 hrs. Test compounds are serially diluted 3.16-fold in 100% DMSO to generate a 7-point concentration curve. A solution of test compound (1 μL, 200× in DMSO) is added to each test well and 1 μL, DMSO is added to each control well. The plate is incubated for 24 hrs in a cell culture incubator (37° C., 5% CO2, 100% relative humidity). The cells are then lysed in Cells-To-Ct lysis buffer and the lysate is stored at 80° C.
SMN2-specific spliced products and GAPDH mRNA are identified using the following primers and probes in Table 5. Primer SMN FL Forward B (SEQ ID NO. 7) hybridizes to a nucleotide sequence in exon 7 (nucleotide 32 to nucleotide 54) and exon 8 (nucleotide 1 to nucleotide 4), primer SMN Δ7 Forward B (SEQ ID NO. 8) hybridizes to a nucleotide sequence in exon 6 (nucleotide 87 to nucleotide 111) and exon 8 (nucleotide 1 to nucleotide 3), primer SMN Reverse B (SEQ ID NO. 9) hybridizes to a nucleotide sequence in exon 8 (nucleotide 39 to nucleotide 62), probe SMN Probe B (SEQ ID NO. 10) hybridizes to a nucleotide sequence in exon 8 (nucleotide 7 to nucleotide 36). These primers and probes hybridize to nucleotide sequences common to human SMN1 and SMN2 mRNA. Since the SMA patient cells used in Example 3 contain only the SMN2 gene, RT-qPCR can quantify only SMN2 full-length and Δ7 mRNA.
The SMN forward and reverse primers are used at final concentrations of 0.4 μM. The SMN probe is used at a final concentration of 0.15 μM. GAPDH primers are used at final concentrations of 0.1 μM and the probe at 0.075 μM. […]
The increase of SMN2 FL and decrease in SMN2 Δ7 mRNA relative to those in cells treated with vehicle control are determined from real-time PCR data using a modified ΔΔCt method (as described in Livak and Schmittgen, Methods, 2001, 25:402-8). The amplification efficiency (E) is calculated from the slope of the amplification curve for SMN2 FL, SMN2 Δ7, and GAPDH individually. The abundances of SMN2 FL, SMN2 Δ7, and GAPDH are then calculated as (1+E)^−Ct, where Ct is the threshold value for each amplicon. […]

| SMILES | SMN2 FL mRNA relative to vehicle [1] | SMN2 Δ7 mRNA relative to vehicle [1] | melting point |
| --- | --- | --- | --- |
| CN1CCN(c2ccc3cc(-c4nc5c(Cl)cccc5s4)c(=O)oc3n2)CC1 [Cpd 5, 3-(4-chloro-1,3-benzothiazol-2-yl)-7-(4-methylpiperazin-1-yl)-2H-pyrano[2,3-b]pyridin-2-one] | progressively more SMN2 FL mRNA | less SMN2 Δ7 mRNA | 258 to 260 °C |
| Cc1ccc2nc(-c3cc4ccc(N5CCN(C)CC5)nc4oc3=O)cn2c1 [Cpd 27, 3-(6-methylimidazo[1,2-a]pyridin-2-yl)-7-(4-methylpiperazin-1-yl)-2H-pyrano[2,3-b]pyridin-2-one] | progressively more SMN2 FL mRNA | less SMN2 Δ7 mRNA | 260 to 264 °C |
